In patent US12351570B2 (MERCK PATENT GMBH, priority 2018, dated 2025):

What follows are compounds tested on MDA-MB-231 cells (assay: Extracellular lactate production inhibition after 4 h, MDA-MB-231). Settings: Homo sapiens, MDA-MB-231.

| IC50 [µM] | SMILES |
| --- | --- |
| 1 to 100 | Cc1cc(C(=O)O)ncc1C#Cc1ccccc1NS(=O)(=O)c1ccc2ccccc2c1 [Compound 50, 4-methyl-5-{2-[2-(naphthalene-2-sulfonamido)phenyl]ethynyl}pyridine-2-carboxylic acid] |
| 1 to 100 | Cc1nc(C(=O)O)ccc1C#Cc1ccccc1NS(=O)(=O)c1ccc2ccccc2c1 [Compound 51, 6-methyl-5-{2-[2-(naphthalene-2-sulfonamido)phenyl]ethynyl}pyridine-2-carboxylic acid] |
| 1 to 100 | Cc1cncc2c(S(=O)(=O)Nc3ccccc3C#Cc3ccc(C(=O)O)cc3)cccc12 [Compound 54, 4-{2-[2-(4-methylisoquinoline-8-sulfonamido)phenyl]ethynyl}benzoic acid] |
| 1 to 100 | O=C(O)c1ccc(C#Cc2ccccc2NS(=O)(=O)c2ccc3ncccc3c2)cc1 [Compound 55, 4-{2-[2-(quinoline-6-sulfonamido)phenyl]ethynyl}benzoic acid] |
| 0.1 to 1 | COc1ccc(S(=O)(=O)Nc2ccccc2C#Cc2ccc(C(=O)O)cc2)cc1C [Compound 56, 4-{2-[2-(4-methoxy-3-methylbenzenesulfonamido)phenyl]-ethynyl}benzoic acid] |
| 1 to 100 | CCOc1cc(C#Cc2ccccc2NS(=O)(=O)c2ccc3ccccc3c2)ccc1C(=O)O [Compound 57, 2-ethoxy-4-{2-[2-(naphthalene-2-sulfonamido)phenyl]ethynyl}benzoic acid] |
| 0.1 to 1 | CCOc1cc(C#Cc2ccccc2NS(=O)(=O)c2ccc(OC)c3ccccc23)ccc1C(=O)O [Compound 58, 2-ethoxy-4-{2-[2-(4-methoxynaphthalene-1-sulfonamido)phenyl]ethynyl}benzoic acid] |
| 0.1 to 1 | Cc1cc(C#Cc2ccccc2NS(=O)(=O)c2cccc3cccnc23)cnc1C(=O)O [Compound 59, 3-methyl-5-{2-[2-(quinoline-8-sulfonamido)phenyl]ethynyl}pyridine-2-carboxylic acid] |
| 1 to 100 | Cc1nc(C(=O)O)ccc1C#Cc1ccccc1NS(=O)(=O)c1cccc2cccnc12 [Compound 60, 6-methyl-5-{2-[2-(quinoline-8-sulfonamido)phenyl]ethynyl}pyridine-2-carboxylic acid] |
| 0.1 to 1 | Cc1cc(C(=O)O)ncc1C#Cc1ccccc1NS(=O)(=O)c1cccc2cccnc12 [Compound 61, 4-methyl-5-{2-[2-(quinoline-8-sulfonamido)phenyl]ethynyl}pyridine-2-carboxylic acid] |
| 0.1 to 1 | COc1cc(C#Cc2ccccc2NS(=O)(=O)c2cccc3ccccc23)ccc1C(=O)O [Compound 62, 2-methoxy-4-{2-[2-(naphthalene-1-sulfonamido)phenyl]ethynyl}benzoic acid] |
| 0.1 to 1 | COc1ccc(S(=O)(=O)Nc2ccccc2C#Cc2cnc(C(=O)O)c(C)c2)c2ccccc12 [Compound 63, 5-{2-[2-(4-methoxynaphthalene-1-sulfonamido)phenyl]ethynyl}-3-methylpyridine-2-carboxylic acid] |
| 1 to 100 | Cc1cccc(C#Cc2ccc(C(=O)O)cc2)c1NS(=O)(=O)c1ccc2ccccc2c1 [Compound 64, 4-{2-[3-methyl-2-(naphthalene-2-sulfonamido)phenyl]ethynyl}benzoic acid] |
| 1 to 100 | O=C(O)c1ncc(C#Cc2ccccc2NS(=O)(=O)c2ccc3ccccc3c2)cc1F [Compound 65, 3-fluoro-5-{2-[2-(naphthalene-2-sulfonamido)phenyl]ethynyl}pyridine-2-carboxylic acid] |
| 1 to 100 | O=C(O)c1ccc(C#Cc2ccccc2NS(=O)(=O)c2cccc3nccnc23)cc1 [Compound 66, 4-{2-[2-(quinoxaline-5-sulfonamido)phenyl]ethynyl}benzoic acid] |
| 0.1 to 1 | COc1ccc(S(=O)(=O)Nc2ccccc2C#Cc2ccc(C(=O)O)c(OC)c2)c(C)c1 [Compound 67, 2-methoxy-4-{2-[2-(4-methoxy-2-methylbenzenesulfonamido)phenyl]-ethynyl}benzoic acid] |
| 0.1 to 1 | O=C(O)c1ccc(C#Cc2cc(F)ccc2NS(=O)(=O)c2cccc3ccccc23)cc1 [Compound 68, 4-{2-[5-fluoro-2-(naphthalene-1-sulfonamido)phenyl]ethynyl}benzoic acid] |
| 0.1 to 1 | O=C(O)c1ccc(C#Cc2ccccc2NS(=O)(=O)c2cccc3ccccc23)cc1F [Compound 69, 2-fluoro-4-{2-[2-(naphthalene-1-sulfonamido)phenyl]ethynyl}benzoic acid] |
| 0.1 to 1 | O=C(O)c1ccc(C#Cc2ccccc2NS(=O)(=O)c2cccc3ccccc23)cn1 [Compound 70, 5-{2-[2-(naphthalene-1-sulfonamido)phenyl]ethynyl}pyridine-2-carboxylic acid] |
| 1 to 100 | COc1cc(C#Cc2ccccc2NS(=O)(=O)c2cccc3ccccc23)cnc1C(=O)O [Compound 71, 3-methoxy-5-{2-[2-(naphthalene-1-sulfonamido)phenyl]ethynyl}pyridine-2-carboxylic acid] |
| 1 to 100 | COc1ccc(S(=O)(=O)Nc2ccccc2C#Cc2ccc(C(=O)O)nc2)c(C)c1 [Compound 72, 5-{2-[2-(4-methoxy-2-methylbenzenesulfonamido)phenyl]-ethynyl}pyridine-2-carboxylic acid] |

| IC50 [µM] | SMILES |
| --- | --- |
| 0.1 to 1 | O=C(O)c1ccc(C#Cc2ccccc2NS(=O)(=O)c2cc3ccccc3o2)cc1 [Compound 73, 4-{2-[2-(1-benzofuran-2-sulfonamido)phenyl]ethynyl}benzoic acid] |
| 0.1 to 1 | Cc1cc(C#Cc2ccccc2NS(=O)(=O)c2cccc3ccccc23)cnc1C(=O)O [Compound 74, 3-methyl-5-{2-[2-(naphthalene-1-sulfonamido)phenyl]ethynyl}pyridine-2-carboxylic acid] |
| 0.1 to 1 | Cc1ccc(S(=O)(=O)Nc2ccccc2C#Cc2ccc(C(=O)O)cc2)c2ccccc12 [Compound 75, 4-{2-[2-(4-methylnaphthalene-1-sulfonamido)phenyl]ethynyl}benzoic acid] |
| 1 to 100 | O=C(O)c1ccc(C#Cc2ccccc2NS(=O)(=O)C2CS(=O)(=O)c3ccccc32)cc1 (stereo not drawn) [Compound 76, 4-{2-[2-(1,1-dioxo-2,3-dihydro-1lambda6-benzo[b]thiophene-3-sulfonamido)phenyl]ethynyl}benzoic acid] |
| 0.1 to 1 | O=C(O)c1ccc(C#Cc2ccccc2NS(=O)(=O)C2=Cc3ccccc3CC2)cc1 [Compound 78, 4-{2-[2-(3,4-dihydronaphthalene-2-sulfonamido)phenyl]ethynyl}benzoic acid] |
| 0.1 to 1 | Cc1cc(C#Cc2ccccc2NS(=O)(=O)c2cccc3ccccc23)ccc1C(=O)O [Compound 80, 2-methyl-4-{2-[2-(naphthalene-1-sulfonamido)phenyl]ethynyl}benzoic acid] |
| 0.1 to 1 | O=C(O)c1ccc(C#Cc2ccccc2NS(=O)(=O)C2=Cc3ccccc3CC2)cn1 [Compound 81, 5-{2-[2-(3,4-dihydronaphthalene-2-sulfonamido)phenyl]ethynyl}pyridine-2-carboxylic acid] |
| 1 to 100 | COc1cnc2cc(S(=O)(=O)Nc3ccccc3C#Cc3ccc(C(=O)O)cc3)ccc2n1 [Compound 82, 4-{2-[2-(2-methoxyquinoxaline-6-sulfonamido)phenyl]ethynyl}benzoic acid] |
| 0.1 to 1 | O=C(O)c1ccc(C#Cc2ccccc2NS(=O)(=O)c2csc3ccccc23)cc1 [Compound 83] |
| 1 to 100 | O=C(O)c1ccc(C#Cc2ccccc2NS(=O)(=O)c2cccc3ccccc23)c2ccccc12 [Compound 84, 4-{2-[2-(naphthalene-1-sulfonamido)phenyl]ethynyl}-naphthalene-1-carboxylic acid] |
| 1 to 100 | Cc1ccccc1-c1cccc(S(=O)(=O)Nc2ccccc2C#Cc2ccc(C(=O)O)cc2)c1 [Compound 86, 4-[2-(2-{2′-methyl-[1,1′-biphenyl]-3-sulfonamido}phenyl)ethynyl]benzoic acid] |
| 0.1 to 1 | O=C(O)c1ccc(C#Cc2ccccc2NS(=O)(=O)c2ccc3c(c2)Cc2ccccc2-3)cc1 [Compound 87, 4-{2-[2-(9H-fluorene-2-sulfonamido)phenyl]ethynyl}benzoic acid] |
| 0.1 to 1 | Cc1cc(C(=O)O)ncc1C#Cc1ccccc1NS(=O)(=O)c1cccc2ccccc12 [Compound 88, 4-methyl-5-{2-[2-(naphthalene-1-sulfonamido)phenyl]ethynyl}pyridine-2-carboxylic acid] |
| 1 to 100 | O=C(O)c1ccc(C#Cc2ccccc2NS(=O)(=O)c2cc3ccccc3o2)cn1 [Compound 89, 5-{2-[2-(1-benzofuran-2-sulfonamido)phenyl]ethynyl}pyridine-2-carboxylic acid] |
| 1 to 100 | O=C(O)c1ccc(C#Cc2ccccc2NS(=O)(=O)N2CCc3ccccc3C2)cc1 [Compound 90, 4-(2-{2-[(1,2,3,4-tetrahydroisoquinoline-2-sulfonyl)amino]phenyl}ethynyl)benzoic acid] |
| 1 to 100 | COc1cnc2cc(S(=O)(=O)Nc3ccccc3C#Cc3ccc(C(=O)O)nc3)ccc2n1 [Compound 91, 5-{2-[2-(2-methoxyquinoxaline-6-sulfonamido)phenyl]ethynyl}pyridine-2-carboxylic acid] |
| 0.01 to 0.1 | O=C(O)c1ccc(C#Cc2ccccc2NS(=O)(=O)c2ccc3c(c2)Cc2ccccc2-3)cn1 [Compound 92, 5-{2-[2-(9H-fluorene-2-sulfonamido)phenyl]ethynyl}pyridine-2-carboxylic acid] |
| 1 to 100 | O=C(O)c1ccc(C#Cc2ccccc2NS(=O)(=O)C2Cc3ccccc3C2)cc1 [Compound 93, 4-{2-[2-(2,3-dihydro-1H-indene-2-sulfonamido)phenyl]ethynyl}benzoic acid] |
| 1 to 100 | Cc1ccccc1-c1cccc(S(=O)(=O)Nc2ccccc2C#Cc2ccc(C(=O)O)nc2)c1 [Compound 94, 5-[2-(2-{2′-methyl-[1,1′-biphenyl]-3-sulfonamido}phenyl)ethynyl]pyridine-2-carboxylic acid] |
| 1 to 100 | O=C(O)c1ccc(C#Cc2ccccc2NS(=O)(=O)c2cccc(Br)c2)cn1 [Compound 95, 5-{2-[2-(3-bromobenzenesulfonamido)phenyl]-ethynyl}pyridine-2-carboxylic acid] |

| SMILES | IC50 [µM] |
| --- | --- |
| O=C(O)c1ccc(C#Cc2ccccc2NS(=O)(=O)c2cccc3cccnc23)cn1 [Compound 52, 5-{2-[2-(quinoline-8-sulfonamido)phenyl]ethynyl}pyridine-2-carboxylic acid] | 0.1 to 1 |
